# According to BindingDB's records for doi:10.1016/s0960-894x(01)00229-3 (Peking University, 2001):
# pIC50: −log10 of the molar value.
# Test: Inhibitory activity against secretory Phospholipase A2 (s-PLA2) of Naja naja
row,pIC50,Compound
1,6.00,COc1ccc2nc(Oc3ccccc3)cc(CC(N)=O)c2c1 [2-(6-Methoxy-2-phenoxy-quinolin-4-yl)-acetamide]
2,5.00,COc1ccc2nc(Oc3ccccc3)cc(C(N)=O)c2c1 [6-Methoxy-2-phenoxy-quinoline-4-carboxylic acid amide]
